# According to US6331548A, “1-cycloalkyl-1,8-naphthyridin-4-one derivative as type IV phosphodiesterase inhibitor” (Suntory Limited, priority 1998, dated 2001):
# Key:
# [1] = target: type IV phosphodiesterase; assay: Type IV phosphodiesterase inhibiting activity; format: biochemical, human; details: U937 type IV phosphodiesterase fraction, 0.28 μM cAMP, pH 7.5, 30° C., 30 minutes; read-out: PDEIV-IC50
# In short: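 PDE4 fraction from U937 cell lysate, separated on DEAE Sepharose, incubated with compound, 0.4 μCi 3H-cAMP (0.28 μM cAMP) and 5'-nucleotidase in Tris-HCl pH 7.5 with 1 mM MgCl2 for 30 min at 30 °C. Product radioactivity counted after QAE-Sephadex removal of substrate.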
# [2] = tested on: TNF-α production by LPS stimulated macrophages; assay: TNF-α production inhibitory activity by LPS stimulated macrophages; format: cell-based; details: Macrophage, BALB/c mouse peritoneal macrophages, cultured for 8 hours, ELISA
# Protocol: The following assay was used to evaluate the ability of the compound of the present invention to suppress TNF-α production by LPS stimulated macrophages according to Immunopharmacol. 29, 121-127 (1995).
# 1) 6 to 10 week old female BALB/c mice were used, 2 ml portions of thioglycolate were intraperitoneally administered, and the abdominal cavities were washed by 10 ml of PBS after 4 days, whereby 1 to 2×10^7 peritoneal cells were obtained per mouse. These were suspended in a hemocyte solution (0.75% ammonium chloride, 17 mM tris-hydrochlorate buffer, pH7.2), centrifuged, then resuspended in an RPMI1640 medium including 10% fetal calf serum and seeded in a 96-well cell culture plate at a density of 1×10^5 cells/50 μl/well. Since these cells adhered strongly to the tissue culture plate and were positive in nonspecific esterase staining, they were used for the test as mouse peritoneal macrophages. Mouse peritoneal macrophages were precultured overnight at 37° C. in […] for the experiment.
# 2) E. Coli (serum type 055:B5) derived LPS was dissolved in PBS in a concentration of 1 mg/ml, then sterilized by filtration. The test compound was dissolved in DMSO to make a 1000-fold concentration solution of the final concentration of use. 10 μl of the above LPS stock solution (final concentration 10 μg/ml) and 1 μl of the tested substance stock solution were added and mixed in 0.5 ml of RPMI1640 medium containing 10% fetal calf serum. This was added to the above cells at 50 μl/well and cultured for 8 hours. The cultured supernatant was recovered from each well and the TNF-α concentration was measured by the ELISA method (Cytoscreen® Immunoassay Kit Mouse TNF-α, BioSourse International).
# The comparative example was the compound described in WO-A-97-04775, Example 1, mentioned above.
# mice = assay: Toxicity: death on intraperitoneal administration to mice for 5 weeks; format: in vivo; details: 10 mg/kg per day intraperitoneally for 5 weeks
# Description: Further, the compounds of the present invention are low in toxicity, and these compounds are expected to be high in safety.
compound,measurement,setting,value
"CO[C@H]1CC[C@H](n2cc(C(=O)Nc3c(Cl)cncc3Cl)c(=O)c3cccnc32)CC1 [Example 127, N-(3,5-dichloropyridin-4-yl)-1-(trans-4-methoxycyclohexyl)-1,4-dihydro[1,8]naphthylidin-4-one-3-carboxamide]",IC50,[1],7.2 nM
same,IC50,[2],15 nM
same,death,mice,no death
"COC(=O)N1CC(n2cc(C(=O)Nc3c(Cl)cncc3Cl)c(=O)c3cccnc32)C1 [Example 34, N-(3,5-dichloropyridin-4-yl)-1-(1-methoxycarbonylazetidin-3-yl)-1,4-dihydro[1,8]naphthylidin-4-one-3-carboxamide]",IC50,[1],24 nM
same,IC50,[2],80 nM
same,death,mice,no death
"COC(=O)N1CCN(n2cc(C(=O)Nc3c(Cl)cncc3Cl)c(=O)c3cccnc32)CC1 [Example 56, N-(3,5-dichloropyridin-4-yl)-1-(4-methoxycarbonylpiperazin-1-yl)-1,4-dihydro[1,8]naphthylidin-4-one-3-carboxamide]",IC50,[1],1.6 nM
same,IC50,[2],15 nM
same,death,mice,no death
"O=C(Nc1c(Cl)cncc1Cl)c1cn([C@H]2CC[C@H](O)CC2)c2ncccc2c1=O [Example 117, N-(3,5-dichloropyridin-4-yl)-1-(trans-4-hydroxycyclohexyl)-1,4-dihydro[1,8]naphthylidin-4-one-3-carboxamide]",IC50,[1],3.7 nM
same,IC50,[2],2 nM
same,death,mice,no death
"COC(=O)N1CC[C@H](n2cc(C(=O)Nc3c(Cl)cncc3Cl)c(=O)c3cccnc32)C1 [Example 11, (S)-N-(3,5-dichloropyridin-4-yl)-1-(1-methoxycarbonylpyrrolidin-3-yl)-1,4-dihydro[1,8]naphthyridin-4-one-3-carboxamide]",IC50,[1],1.7 nM
same,IC50,[2],4 nM
same,death,mice,no death
"O=CN1CCC(n2cc(C(=O)Nc3c(Cl)cncc3Cl)c(=O)c3cccnc32)CC1 [Example 48, N-(3,5-dichloropyridin-4-yl)-1-(1-formylpiperidin-4-yl)-1,4-dihydro[1,8]naphthylidin-4-one-3-carboxamide]",IC50,[1],4.8 nM
same,IC50,[2],1500 nM
"O=C(Nc1ccncc1)c1cn([C@H]2CCOC2)c2ncccc2c1=O [Example 43, N-(4-pyridyl)-1-[(S)-tetrahydro-3-furanyl]-1,4-dihydro[1,8]naphthylidin-4-one-3-carboxamide]",IC50,[1],190 nM
same,IC50,[2],2500 nM
"O=C(Nc1c(Cl)cncc1Cl)c1cn([C@H]2C[C@H]3COC(=O)N3C2)c2ncccc2c1=O [Example 86, N-(3,5-dichloropyridine-4-yl)-1-[(5S,7S)-1-aza-3-oxabicyclo[3,3,0]octan-2-one-7-yl]-1,4-dihydro[1,8]naphthylidin-4-one-3-carboxamide]",IC50,[1],140 nM
same,IC50,[2],3000 nM
"O=C(Nc1c(Cl)cncc1Cl)c1cn(C2CC[S+]([O-])CC2)c2ncccc2c1=O (centres unmarked) [Example 102 (Sulfoxide), N-(3,5-dichloropyridin-4-yl)-1-(1-oxotetrahydrothiopyran-4-yl)-1,4-dihydro[1,8]naphthylidin-4-one-3-carboxamide]",IC50,[1],5.1 nM
same,IC50,[2],70 nM
"CN1CCN(n2cc(C(=O)Nc3c(Cl)cncc3Cl)c(=O)c3cccnc32)CC1 [Example 55, N-(3,5-dichloropyridin-4-yl)-1-(4-methylpiperazine-1-yl)-1,4-dihydro[1,8]naphthylidin-4-one-3-carboxamide]",IC50,[1],6.7 nM
same,IC50,[2],10 nM
"O=C(Nc1ccncc1)c1cn(C2CCCC2)c2ncccc2c1=O [Example 149, N-(4-pyridyl)-1-cyclopentyl-1,4-dihydro[1,8]naphthylidin-4-one-3-carboxamide]",IC50,[1],41 nM
same,IC50,[2],78 nM
"COC(=O)N1CC[C@@H](n2cc(C(=O)Nc3c(Cl)cccc3Cl)c(=O)c3cccnc32)C1 [Example 16, (R)-N-(2,6-dichlorophenyl)-1-(1-methoxycarbonylpyrrolidin-3-yl)-1,4-dihydro[1,8]naphthyridin-4-one-3-carboxamide]",IC50,[1],54 nM
same,IC50,[2],300 nM
